This assay has as its target T1, Human BCL-XL protein (N-terminal HiBiT tagged BCL-XL in HT1080 cells) (Homo sapiens, UniProt Q07817).
T1 construct: expressed in transfected cells; host or cells: HT-1080 (ATCC CCL-121), stably transduced with lentivirus pLV-UBC-N-HiBiT-BCL-XL-PGK-puro and selected with puromycin
The assay can be described thus: HiBiT based degradation assay. The following applies: HT1080 cells expressing HiBiT-BCL-XL; for Ymin (6 h) / Ymin (24 h): BCL-XL degradation normalized with DMSO control; for DC50: BCL-XL degradation. The format is cell-based. In outline:
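This HiBiT degradation assay measured loss of BCL-XL in HT1080 cells that stably express an N-terminal HiBiT-BCL-XL fusion delivered by lentivirus. Cells were added to compound-spotted 384-well plates, and luminescence was read on a PHERAstar FSX reader. Signal was expressed relative to DMSO controls, curves were fitted by four-parameter logistic regression, and for hook-shaped curves the Ymin point served as the bottom plateau when calculating EC50.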
(In general: With HiBiT, luminescence reflects the tagged protein that the partner subunit can reach.)

Data on 15 compounds can be found in patent publication US20240238423A9, “TETRAHYDROISOQUINOLINE HETEROBIFUNCTIONAL BCL-XL DEGRADERS” (Treeline Biosciences, Inc., priority 2022, published 2024).

Where two headings read alike, the source gives them in different places.

T1 sequence (Q07817 whole entry): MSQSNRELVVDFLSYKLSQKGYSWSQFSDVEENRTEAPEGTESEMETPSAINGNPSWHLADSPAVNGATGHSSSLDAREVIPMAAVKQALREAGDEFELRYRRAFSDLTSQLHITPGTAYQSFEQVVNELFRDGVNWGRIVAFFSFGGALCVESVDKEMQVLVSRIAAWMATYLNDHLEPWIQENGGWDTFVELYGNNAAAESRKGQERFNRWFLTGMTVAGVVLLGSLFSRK

`Cc1c(OCCCCCCCCN2CCN(c3ccc4c(C5CCC(=O)NC5=O)nn(C)c4c3)CC2)cccc1-c1ccc(N2CCc3cccc(C(=O)Nc4nc5ccccc5s4)c3C2)nc1C(=O)O` (stereo not drawn) [Compound 205, 6-[8-(1,3-benzothiazol-2-ylcarbamoyl)-3,4-dihydro-1H-isoquinolin-2-yl]-3-[3-[8-[4-[3-(2,6-dioxo-3-piperidyl)-1-methyl-indazol-6-yl]piperazin-1-yl]octoxy]-2-methyl-phenyl]pyridine-2-carboxylic acid]: under “6 h”, the “Ymin (6 h)” value is listed as “B (50% ≤ Ymin < 70%)”. Further, the “Ymin (24 h)” value (24 h) is “A (Ymin < 50%)”. Moreover, the DC50 is, setting by setting: (6 h, read-out: EC50 (6 h)) < 100 nM; (24 h, read-out: EC50 (24 h)) < 100 nM.
In the case of `Cc1c(OCCCC2CCN([C@H](C)C(=O)Nc3cccc4c(C5CCC(=O)NC5=O)nn(C)c34)CC2)cccc1-c1ccc(N2CCc3cccc(C(=O)Nc4nc5ccccc5s4)c3C2)nc1C(=O)O` (stereo partly drawn) [Compound 216b, 6-(8-(benzo[d]thiazol-2-ylcarbamoyl)-3,4-dihydroisoquinolin-2(1H)-yl)-3-(3-(3-(1-((2R)-1-((3-(2,6-dioxopiperidin-3-yl)-1-methyl-1H-indazol-7-yl)amino)-1-oxopropan-2-yl)piperidin-4-yl)propoxy)-2-methylphenyl)picolinic acid], the “Ymin (24 h)” value (24 h) is on record as “B (50% ≤ Ymin < 70%)”. Also, the DC50 (24 h, read-out: EC50 (24 h)) is < 100 nM.
Turning to `Cc1c(O[C@H]2CC[C@H](CCCCN3CCN(c4ccc5c(C6CCC(=O)NC6=O)nn(C)c5c4)CC3)CC2)cccc1-c1ccc(N2CCc3cccc(C(=O)Nc4nc5ccccc5s4)c3C2)nc1C(=O)O` (stereo partly drawn) [Compound 161a, 6-(8-(benzo[d]thiazol-2-ylcarbamoyl)-3,4-dihydroisoquinolin-2(1H)-yl)-3-(3-(((1s,4r)-4-(4-(4-(3-(2,6-dioxopiperidin-3-yl)-1-methyl-1H-indazol-6-yl)piperazin-1-yl)butyl)cyclohexyl)oxy)-2-methylphenyl)picolinic acid], under “24 h”, the “Ymin (24 h)” value was “A (Ymin < 50%)”. For the same compound, under “24 h, read-out: EC50 (24 h)”, the DC50 was < 100 nM.
Take `Cc1c(OCC[C@H]2CCN(CC(=O)Nc3ccc4c(C5CCC(=O)NC5=O)nn(C)c4c3)C2)cccc1-c1ccc(N2CCc3cccc(C(=O)Nc4nc5ccccc5s4)c3C2)nc1C(=O)O` (stereo partly drawn) [Compound 219b, 6-[8-(1,3-benzothiazol-2-ylcarbamoyl)-3,4-dihydro-1H-isoquinolin-2-yl]-3-[3-[2-[(3R)-1-[2-[[3-(2,6-dioxo-3-piperidyl)-1-methyl-indazol-6-yl]amino]-2-oxo-ethyl]pyrrolidin-3-yl]ethoxy]-2-methyl-phenyl]pyridine-2-carboxylic acid]: the “Ymin (6 h)” value (6 h) is recorded as “B (50% ≤ Ymin < 70%)”. Moreover, the “Ymin (24 h)” value (24 h) was “A (Ymin < 50%)”. Moreover, the DC50 was < 100 nM (6 h, read-out: EC50 (6 h)) and < 100 nM (24 h, read-out: EC50 (24 h)).
For the compound `Cc1c(Oc2ccc(CCCN3CCN(c4cccc5c(C6CCC(=O)NC6=O)nn(C)c45)CC3)cc2)cccc1-c1ccc(N2CCc3cccc(C(=O)Nc4nc5ccccc5s4)c3C2)nc1C(=O)O` (stereo not drawn) [Compound 150, 6-[8-(1,3-benzothiazol-2-ylcarbamoyl)-3,4-dihydro-1H-isoquinolin-2-yl]-3-[3-[4-[3-[4-[3-(2,6-dioxo-3-piperidyl)-1-methyl-indazol-7-yl]piperazin-1-yl]propyl]phenoxy]-2-methyl-phenyl]pyridine-2-carboxylic acid], the “Ymin (6 h)” value (6 h) was “B (50% ≤ Ymin < 70%)”. Further, the “Ymin (24 h)” value (24 h) is reported as “B (50% ≤ Ymin < 70%)”. Moreover, the DC50 is, setting by setting: (6 h, read-out: EC50 (6 h)) 100 to 1000 nM; (24 h, read-out: EC50 (24 h)) < 100 nM.
For `Cc1c(OCCCN2CCN(CC(=O)Nc3cccc4c(C5CCC(=O)NC5=O)nn(C)c34)[C@@H](C(F)(F)F)C2)cccc1-c1ccc(N2CCc3cccc(C(=O)Nc4nc5ccccc5s4)c3C2)nc1C(=O)O` (stereo partly drawn) [Compound 218a, 6-(8-(benzo[d]thiazol-2-ylcarbamoyl)-3,4-dihydroisoquinolin-2(1H)-yl)-3-(3-(3-((3R)-4-(2-((3-(2,6-dioxopiperidin-3-yl)-1-methyl-1H-indazol-7-yl)amino)-2-oxoethyl)-3-(trifluoromethyl)piperazin-1-yl)propoxy)-2-methylphenyl)picolinic acid], the “Ymin (6 h)” value (6 h) is “C (Ymin ≥ 70%)”. Moreover, the “Ymin (24 h)” value (24 h) is recorded as “B (50% ≤ Ymin < 70%)”. The DC50 is, setting by setting: (6 h, read-out: EC50 (6 h)) 1000 to 10000 nM; (24 h, read-out: EC50 (24 h)) 100 to 1000 nM.
Regarding `Cc1c(O[C@H]2CC[C@H](CC[C@@H](C)N3CCN(c4cccc5c(C6CCC(=O)NC6=O)nn(C)c45)CC3)CC2)cccc1-c1ccc(N2CCc3cccc(C(=O)Nc4nc5ccccc5s4)c3C2)nc1C(=O)O` (single isomer, unassigned) [Compound 283b], the “Ymin (24 h)” value (24 h) is listed as “A (Ymin < 50%)”. For the same compound, the DC50 (24 h, read-out: EC50 (24 h)) was < 100 nM.
As for `Cc1c(O[C@H]2CC[C@H](C[C@H](C)CN3CCN(c4ccc5c(C6CCC(=O)NC6=O)nn(C)c5c4)CC3)CC2)cccc1-c1ccc(N2CCc3cccc(C(=O)Nc4nc5ccccc5s4)c3C2)nc1C(=O)O` (single isomer, unassigned) [Compound 282b, 6-(8-(benzo[d]thiazol-2-ylcarbamoyl)-3,4-dihydroisoquinolin-2(1H)-yl)-3-(3-(((1S,4r)-4-((2S*)-3-(4-(3-(2,6-dioxopiperidin-3-yl)-1-methyl-1H-indazol-6-yl)piperazin-1-yl)-2-methylpropyl)cyclohexyl)oxy)-2-methylphenyl)picolinic acid], where the note is “24 h”, the “Ymin (24 h)” value is listed as “A (Ymin < 50%)”. In addition, the DC50 (24 h, read-out: EC50 (24 h)) was < 100 nM.
Taken in the same sequence, the figures for `Cc1c(O[C@H]2CC[C@H](CCCCN3CCC(Oc4cccc5c(C6CCC(=O)NC6=O)nn(C)c45)CC3)CC2)cccc1-c1ccc(N2CCc3cccc(C(=O)Nc4nc5ccccc5s4)c3C2)nc1C(=O)O` (stereo partly drawn) [Compound 327a, 6-(8-(benzo[d]thiazol-2-ylcarbamoyl)-3,4-dihydroisoquinolin-2(1H)-yl)-3-(3-(((1s,4r)-4-(4-(4-((3-(2,6-dioxopiperidin-3-yl)-1-methyl-1H-indazol-7-yl)oxy)piperidin-1-yl)butyl)cyclohexyl)oxy)-2-methylphenyl)picolinic acid] were “A (Ymin < 50%)” and < 100 nM.
For `Cc1c(O[C@H]2CC[C@H](CCC(=O)Nc3ccc4c(C5CCC(=O)NC5=O)nn(C)c4c3)CC2)cccc1-c1ccc(N2CCc3cccc(C(=O)Nc4nc5ccccc5s4)c3C2)nc1C(=O)O` (stereo partly drawn) [Compound 125a, 6-(8-(benzo[d]thiazol-2-ylcarbamoyl)-3,4-dihydroisoquinolin-2(1H)-yl)-3-(3-(((1r,4r)-4-(3-((3-(2,6-dioxopiperidin-3-yl)-1-methyl-1H-indazol-6-yl)amino)-3-oxopropyl)cyclohexyl)oxy)-2-methylphenyl)picolinic acid], where the note is “6 h”, the “Ymin (6 h)” value is listed as “C (Ymin ≥ 70%)”. In addition, where the note is “24 h”, the “Ymin (24 h)” value is given as “C (Ymin ≥ 70%)”. Besides, the DC50 was 1000 to 10000 nM (6 h, read-out: EC50 (6 h)) and 1000 to 10000 nM (24 h, read-out: EC50 (24 h)).
For `Cc1c(OCC2CC3(CCN(CC(=O)Nc4ccc5c(C6CCC(=O)NC6=O)nn(C)c5c4)CC3)C2)cccc1-c1ccc(N2CCc3cccc(C(=O)Nc4nc5ccccc5s4)c3C2)nc1C(=O)O` (stereo not drawn) [Compound 156, 6-(8-(benzo[d]thiazol-2-ylcarbamoyl)-3,4-dihydroisoquinolin-2(1H)-yl)-3-(3-((7-(2-((3-(2,6-dioxopiperidin-3-yl)-1-methyl-1H-indazol-6-yl)amino)-2-oxoethyl)-7-azaspiro[3.5]nonan-2-yl)methoxy)-2-methylphenyl)picolinic acid], under “6 h”, the “Ymin (6 h)” value was “A (Ymin < 50%)”. Besides, the “Ymin (24 h)” value (24 h) is given as “A (Ymin < 50%)”. Moreover, the DC50 was < 100 nM (6 h, read-out: EC50 (6 h)) and < 100 nM (24 h, read-out: EC50 (24 h)).
Take `Cc1c(OCCCN2CCN(CC(=O)Nc3ccc4c(C5CCC(=O)NC5=O)nn(C)c4c3)C[C@H]2C(F)(F)F)cccc1-c1ccc(N2CCc3cccc(C(=O)Nc4nc5ccccc5s4)c3C2)nc1C(=O)O` (stereo partly drawn) [Compound 245b, 6-(8-(benzo[d]thiazol-2-ylcarbamoyl)-3,4-dihydroisoquinolin-2(1H)-yl)-3-(3-(3-((2S)-4-(2-((3-(2,6-dioxopiperidin-3-yl)-1-methyl-1H-indazol-6-yl)amino)-2-oxoethyl)-2-(trifluoromethyl)piperazin-1-yl)propoxy)-2-methylphenyl)picolinic acid]: the “Ymin (24 h)” value (24 h) was “B (50% ≤ Ymin < 70%)”. Also, the DC50 (24 h, read-out: EC50 (24 h)) is < 100 nM.
For `Cc1c(OCCC(F)(F)C2CCN(CC(=O)Nc3ccc4c(C5CCC(=O)NC5=O)nn(C)c4c3)CC2)cccc1-c1ccc(N2CCc3cccc(C(=O)Nc4nc5ccccc5s4)c3C2)nc1C(=O)O` (stereo not drawn) [Compound 229, 6-(8-(benzo[d]thiazol-2-ylcarbamoyl)-3,4-dihydroisoquinolin-2(1H)-yl)-3-(3-(3-(1-(2-((3-(2,6-dioxopiperidin-3-yl)-1-methyl-1H-indazol-6-yl)amino)-2-oxoethyl)piperidin-4-yl)-3,3-difluoropropoxy)-2-methylphenyl)picolinic acid], under “24 h”, the “Ymin (24 h)” value was “B (50% ≤ Ymin < 70%)”. Besides, for the setting “24 h, read-out: EC50 (24 h)”, the DC50 is < 100 nM.
For `Cc1c(Oc2ccc(CCCCN3CCN(c4ccc5c(C6CCC(=O)NC6=O)nn(C)c5c4)CC3)cc2)cccc1-c1ccc(N2CCc3cccc(C(=O)Nc4nc5ccccc5s4)c3C2)nc1C(=O)O` (stereo not drawn) [Compound 163, 6-(8-(benzo[d]thiazol-2-ylcarbamoyl)-3,4-dihydroisoquinolin-2(1H)-yl)-3-(3-(4-(4-(4-(3-(2,6-dioxopiperidin-3-yl)-1-methyl-1H-indazol-6-yl)piperazin-1-yl)butyl)phenoxy)-2-methylphenyl)picolinic acid] the same measures were “A (Ymin < 50%)” and < 100 nM.
Taken in the same sequence, the figures for `Cc1c(O[C@H]2CC[C@H](CCCCN3CC[C@H](c4cccc5c(C6CCC(=O)NC6=O)nn(C)c45)C3)CC2)cccc1-c1ccc(N2CCc3cccc(C(=O)Nc4nc5ccccc5s4)c3C2)nc1C(=O)O` (single isomer, unassigned) [Compound 321a] were “A (Ymin < 50%)” and < 100 nM.
